Source: patent publication US7183276B2, “Azole compounds” (Takeda Pharmaceutical Company Limited, priority 2002, dated 2007)

Assays:
[1] = tested on: diabetic neuropathy model (streptozotocin-injected rats); assay: Motor nerve conduction velocity in STZ diabetic neuropathy model rats; assay type: in vivo; details: male SD rats, STZ 70 mg/kg diabetic neuropathy model; 3 mg/kg orally in 0.5% methyl cellulose; average value ± SD (n = 7–8)
Experimental: (§1) To 6-week-old male SD rats (CLEA Japan, Inc.) was injected 70 mg/kg body weight of streptozotocin (STZ) from the tail vein to form a diabetic neuropathy model.
(§2) After raising for one month, 3 mg/kg of compound (compound of Example 5 or Example 226) suspended in 0.5% methyl cellulose was orally administered to the rats. For the control group, a 0.5% aqueous methyl cellulose suspension free of the aforementioned compound was administered.
After the completion of the administration, the rats were anesthetized with Nembutal, the body temperature was maintained at a constant level using a hot plate at 37° C. and a desk lamp, needle electrodes were placed on the above-knee region and ankle, stimulated using Neuropack 2 (NIHON KOHDEN CORPORATION) principally at 1.6 mA and the evoked potential was detected from the plantar part. The Motor Nerve Conduction Velocity (MNCV) was calculated from the distance between different electrodes and latency difference of waveforms.

[2] = tested on: BDNF; assay: BDNF content of ischiadic nerve of STZ diabetic neuropathy model rats (sandwich ELISA); assay type: in vivo; details: male SD rats, STZ 70 mg/kg diabetic neuropathy model, 3 mg/kg orally in 0.5% methyl cellulose, ischiadic nerve supernatant, average value ± SD (n = 7–8)
Experimental: as §1, §2
After the evaluation of the nerve conduction velocity, the ischiadic nerve was taken from the rat, a lysis buffer (0.1M Tris-HCl buffer containing 1M sodium chloride, 2% BSA, 2 mM EDTA, 80 trypsin unit/L of aprotinin, pH 7.6) in a 20-fold amount of the wet weight of ischiadic nerve was added and the mixture was subjected to ultrasonication and centrifugal separation (15,000 rpm, 60 min.), and the BDNF content of the supernatant was measured.
The BDNF content was measured by sandwich ELISA Method using anti-BDNF polyclonal antibody (Promega) and biotinated anti-BDNF antibody (G1641, Promega). The results are shown in [Table 20].

CCOP(=O)(Cc1ccc(NC(=O)CCCc2oc(-n3cnc4ccccc43)nc2-c2ccc(Cl)cc2)cc1)OCC [Example 226, 4-[2-(1H-benzimidazol-1-yl)-4-(4-chlorophenyl)-5-oxazolyl]-N-[(4-diethylphosphonomethyl)phenyl]butanamide]
MNCV (Motor Nerve Conduction Velocity) [1]: 52.3 ± 2.4 m/s
BDNF (content of ischiadic nerve) [2]: 3.6 ± 0.4 ng/g

CCOP(=O)(Cc1ccc(NC(=O)CCc2oc(-n3cnc4ccccc43)nc2-c2ccc(Cl)cc2)cc1)OCC [Example 5, 3-[2-(1H-benzimidazol-1-yl)-4-(4-chlorophenyl)-5-oxazolyl]-N-[4-(diethylphosphonomethyl)phenyl]propionamide]
melting point: 159 to 160 °C
MNCV (Motor Nerve Conduction Velocity) [1]: 52.7 ± 5.0 m/s
BDNF (content of ischiadic nerve) [2]: 2.6 ± 0.7 ng/g
